# Laboratory results reported in the supplement of paper PMC10307832.
# Columns and labels:
# Assay in all cases: relative viability (nuclei count vs DMSO), 5 days (fraction); higher = more cells survive
# PC-3 [JPC-3] = tested on: PC-3 [JPC-3]
# Procedure, shortened: (§1)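 A single step with final 0.05% Triton X-100, 1% formaldehyde and 1 ug/ml Hoechst fixed the cells and stained nuclei 5 days after treatment. Lung cancer cell lines in 1536-well plates had been treated by pin tool the day after seeding with one drug alone or a fixed anchor-drug dose plus five library-drug doses (not always all listed) in √10 steps, and nuclei were counted on 4× images. Relative viability is the ratio of nuclei in treated wells to nuclei in vehicle wells, taken as the median of duplicate plates.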
# NCI-H520 = tested on: NCI-H520
# Procedure, shortened: as §1
# NCI-H1755 = tested on: NCI-H1755
# Procedure, shortened: as §1
# LK-2 = tested on: LK-2
# Procedure, shortened: as §1
# NCI-H1355 = tested on: NCI-H1355
# Procedure, shortened: as §1
# NCI-H2228 = tested on: NCI-H2228
# Procedure, shortened: as §1
# NCI-H322M = tested on: NCI-H322M
# Procedure, shortened: as §1
# NCI-H1975 = tested on: NCI-H1975
# Procedure, shortened: as §1
# NCI-H661 = tested on: NCI-H661
# Procedure, shortened: as §1
# LCLC-97TM1 = tested on: LCLC-97TM1
# Procedure, shortened: as §1
# HCC-15 = tested on: HCC-15
# Procedure, shortened: as §1
# EKVX = tested on: EKVX
# Procedure, shortened: as §1
# NCI-H2405 = tested on: NCI-H2405
# Procedure, shortened: as §1
# RERF-LC-KJ = tested on: RERF-LC-KJ
# Procedure, shortened: as §1
# HCC-827 = tested on: HCC-827
# Procedure, shortened: as §1
# NCI-H1734 = tested on: NCI-H1734
# Procedure, shortened: as §1
# PC-14 = tested on: PC-14
# Procedure, shortened: as §1
# NCI-H1563 = tested on: NCI-H1563
# Procedure, shortened: as §1
# H3255 = tested on: H3255
# Procedure, shortened: as §1
# CAL-12T = tested on: CAL-12T
# Procedure, shortened: as §1
# NCI-H2342 = tested on: NCI-H2342
# Procedure, shortened: as §1
# NCI-H1650 = tested on: NCI-H1650
# Procedure, shortened: as §1
smiles,measurement,setting,value
CC(=O)O[C@@]12CO[C@@H]1C[C@H](O)[C@@]1(C)C(=O)[C@H](O)C3=C(C)[C@@H](OC(=O)[C@H](O)[C@@H](NC(=O)OC(C)(C)C)c4ccccc4)C[C@@](O)([C@@H](OC(=O)c4ccccc4)[C@H]21)C3(C)C [Docetaxel] + N=C(N)NC(=N)NCCc1ccccc1 [Phenformin] (partner 250 µM),relative viability,PC-3 [JPC-3]; first compound 0.0002 µM,0.484
same,relative viability,PC-3 [JPC-3]; first compound 0.000632 µM,0.48
same,relative viability,PC-3 [JPC-3]; first compound 0.002 µM,0.371
same,relative viability,PC-3 [JPC-3]; first compound 0.006325 µM,0.246
same,relative viability,PC-3 [JPC-3]; first compound 0.02 µM,0.138
same,relative viability,NCI-H520; first compound 0.0002 µM,0.585
same,relative viability,NCI-H520; first compound 0.000632 µM,0.604
same,relative viability,NCI-H520; first compound 0.002 µM,0.37
same,relative viability,NCI-H520; first compound 0.006325 µM,0.255
same,relative viability,NCI-H520; first compound 0.02 µM,0.148
same,relative viability,NCI-H1755; first compound 0.0002 µM,0.621
same,relative viability,NCI-H1755; first compound 0.000632 µM,0.577
same,relative viability,NCI-H1755; first compound 0.002 µM,0.411
same,relative viability,NCI-H1755; first compound 0.006325 µM,0.434
same,relative viability,NCI-H1755; first compound 0.02 µM,0.36
same,relative viability,LK-2; first compound 0.0002 µM,0.369
same,relative viability,LK-2; first compound 0.000632 µM,0.27
same,relative viability,LK-2; first compound 0.002 µM,0.118
same,relative viability,LK-2; first compound 0.006325 µM,0.153
same,relative viability,LK-2; first compound 0.02 µM,0.124
same,relative viability,NCI-H1355; first compound 0.0002 µM,0.463
same,relative viability,NCI-H1355; first compound 0.000632 µM,0.402
same,relative viability,NCI-H1355; first compound 0.002 µM,0.385
same,relative viability,NCI-H1355; first compound 0.006325 µM,0.287
same,relative viability,NCI-H1355; first compound 0.02 µM,0.217
same,relative viability,NCI-H2228; first compound 0.0002 µM,0.302
same,relative viability,NCI-H2228; first compound 0.000632 µM,0.173
same,relative viability,NCI-H2228; first compound 0.002 µM,0.147
same,relative viability,NCI-H2228; first compound 0.006325 µM,0.158
same,relative viability,NCI-H2228; first compound 0.02 µM,0.123
same,relative viability,NCI-H322M; first compound 0.0002 µM,0.807
same,relative viability,NCI-H322M; first compound 0.000632 µM,0.765
same,relative viability,NCI-H322M; first compound 0.002 µM,0.656
same,relative viability,NCI-H322M; first compound 0.006325 µM,0.478
same,relative viability,NCI-H322M; first compound 0.02 µM,0.332
same,relative viability,NCI-H1975; first compound 0.0002 µM,0.406
same,relative viability,NCI-H1975; first compound 0.000632 µM,0.334
same,relative viability,NCI-H1975; first compound 0.002 µM,0.209
same,relative viability,NCI-H1975; first compound 0.006325 µM,0.148
same,relative viability,NCI-H1975; first compound 0.02 µM,0.134
same,relative viability,NCI-H661; first compound 0.0002 µM,0.334
same,relative viability,NCI-H661; first compound 0.000632 µM,0.32
same,relative viability,NCI-H661; first compound 0.002 µM,0.317
same,relative viability,NCI-H661; first compound 0.006325 µM,0.267
same,relative viability,NCI-H661; first compound 0.02 µM,0.221
same,relative viability,LCLC-97TM1; first compound 0.0002 µM,0.403
same,relative viability,LCLC-97TM1; first compound 0.000632 µM,0.366
same,relative viability,LCLC-97TM1; first compound 0.002 µM,0.267
same,relative viability,LCLC-97TM1; first compound 0.006325 µM,0.162
same,relative viability,LCLC-97TM1; first compound 0.02 µM,0.131
same,relative viability,HCC-15; first compound 0.0002 µM,0.402
same,relative viability,HCC-15; first compound 0.000632 µM,0.315
same,relative viability,HCC-15; first compound 0.002 µM,0.181
same,relative viability,HCC-15; first compound 0.006325 µM,0.203
same,relative viability,HCC-15; first compound 0.02 µM,0.113
same,relative viability,EKVX; first compound 0.0002 µM,0.264
same,relative viability,EKVX; first compound 0.000632 µM,0.218
same,relative viability,EKVX; first compound 0.002 µM,0.191
same,relative viability,EKVX; first compound 0.006325 µM,0.149
same,relative viability,EKVX; first compound 0.02 µM,0.137
same,relative viability,NCI-H2405; first compound 0.0002 µM,0.393
same,relative viability,NCI-H2405; first compound 0.000632 µM,0.419
same,relative viability,NCI-H2405; first compound 0.002 µM,0.315
same,relative viability,NCI-H2405; first compound 0.006325 µM,0.297
same,relative viability,NCI-H2405; first compound 0.02 µM,0.26
same,relative viability,RERF-LC-KJ; first compound 0.0002 µM,0.454
same,relative viability,RERF-LC-KJ; first compound 0.000632 µM,0.405
same,relative viability,RERF-LC-KJ; first compound 0.002 µM,0.238
same,relative viability,RERF-LC-KJ; first compound 0.006325 µM,0.209
same,relative viability,RERF-LC-KJ; first compound 0.02 µM,0.195
same,relative viability,HCC-827; first compound 0.0002 µM,0.392
same,relative viability,HCC-827; first compound 0.000632 µM,0.426
same,relative viability,HCC-827; first compound 0.002 µM,0.357
same,relative viability,HCC-827; first compound 0.006325 µM,0.247
same,relative viability,HCC-827; first compound 0.02 µM,0.213
same,relative viability,NCI-H1734; first compound 0.0002 µM,0.296
same,relative viability,NCI-H1734; first compound 0.000632 µM,0.338
same,relative viability,NCI-H1734; first compound 0.002 µM,0.232
same,relative viability,NCI-H1734; first compound 0.006325 µM,0.221
same,relative viability,NCI-H1734; first compound 0.02 µM,0.168
same,relative viability,PC-14; first compound 0.0002 µM,0.575
same,relative viability,PC-14; first compound 0.000632 µM,0.212
same,relative viability,PC-14; first compound 0.002 µM,0.129
same,relative viability,PC-14; first compound 0.006325 µM,0.0718
same,relative viability,PC-14; first compound 0.02 µM,0.0382
same,relative viability,NCI-H1563; first compound 0.0002 µM,0.619
same,relative viability,NCI-H1563; first compound 0.000632 µM,0.683
same,relative viability,NCI-H1563; first compound 0.002 µM,0.661
same,relative viability,NCI-H1563; first compound 0.006325 µM,0.582
same,relative viability,NCI-H1563; first compound 0.02 µM,0.479
same,relative viability,H3255; first compound 0.0002 µM,0.353
same,relative viability,H3255; first compound 0.000632 µM,0.349
same,relative viability,H3255; first compound 0.002 µM,0.312
same,relative viability,H3255; first compound 0.006325 µM,0.357
same,relative viability,H3255; first compound 0.02 µM,0.259
same,relative viability,CAL-12T; first compound 0.0002 µM,0.522
same,relative viability,CAL-12T; first compound 0.000632 µM,0.305
same,relative viability,CAL-12T; first compound 0.002 µM,0.185
same,relative viability,CAL-12T; first compound 0.006325 µM,0.135
same,relative viability,CAL-12T; first compound 0.02 µM,0.118
same,relative viability,NCI-H2342; first compound 0.0002 µM,0.478
same,relative viability,NCI-H2342; first compound 0.000632 µM,0.596
same,relative viability,NCI-H2342; first compound 0.002 µM,0.625
same,relative viability,NCI-H2342; first compound 0.006325 µM,0.4
same,relative viability,NCI-H2342; first compound 0.02 µM,0.343
same,relative viability,NCI-H1650; first compound 0.0002 µM,0.349
same,relative viability,NCI-H1650; first compound 0.000632 µM,0.287
same,relative viability,NCI-H1650; first compound 0.006325 µM,0.147
same,relative viability,NCI-H1650; first compound 0.02 µM,0.0956
